Measurements from PubChem BioAssay AID248 (DTP/NCI, 2004).
Inconclusive results and toxic doses are left out. No stated cut-off is given here; in the data, active means T/C of 150% or more; inactive means T/C below 125%.

System: L1210 leukemia ip in BDF1 mice, survival T/C
Experiment: NCI In Vivo Anticancer Drug Screen. Data for tumor model L1210 Leukemia (intraperitoneal) in B6D2F1 (BDF1) mice
Conditions: endpoint: mean survival time, higher = longer survival
How it was run: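 Value reflects the ratio of survival in compound-treated mice to survival in vehicle-treated controls, with both groups carrying the same transplanted tumor.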

Measured: T/C

c1ccc(C2CN3CCSC3=N2)cc1 (centres undefined)
inactive: dose: 0.78 mg/kg/injection, schedule: Q04DX003 (ip), vehicle: saline 102 % of control | dose: 1.56 mg/kg/injection, schedule: Q01DX009 (ip), vehicle: saline 97 % of control | dose: 1.56 mg/kg/injection, schedule: Q04DX003 (ip), vehicle: saline 100 % of control | dose: 3.12 mg/kg/injection, schedule: Q01DX009 (ip), vehicle: saline 100 % of control | dose: 3.12 mg/kg/injection, schedule: Q04DX003 (ip), vehicle: saline 98 % of control | dose: 6.25 mg/kg/injection, schedule: Q01DX009 (ip), vehicle: saline 102 % of control | dose: 6.25 mg/kg/injection, schedule: Q04DX003 (ip), vehicle: saline 104 % of control | dose: 12.5 mg/kg/injection, schedule: Q01DX009 (ip), vehicle: saline 94 % of control | dose: 12.5 mg/kg/injection, schedule: Q04DX003 (ip), vehicle: saline 107 % of control | dose: 25.0 mg/kg/injection, schedule: Q01DX009 (ip), vehicle: saline 105 % of control | dose: 25.0 mg/kg/injection, schedule: Q04DX003 (ip), vehicle: saline 114 % of control

CN=C(NC(C=O)C(O)C(O)C(O)CO)c1ccc(NC(=O)c2ccc(C(=O)Nc3ccc(C(=NC)NC(C=O)C(O)C(O)C(O)CO)cc3)cc2)cc1 (centres undefined)
inactive: dose: 62.0 mg/kg/injection, schedule: Q01DX Z (ip), vehicle: water 111 % of control | dose: 125.0 mg/kg/injection, schedule: Q01DX Z (ip), vehicle: water 115 % of control

CC(=O)NC1CCCC(O)C1 (centres undefined)
inactive: dose: 100.0 mg/kg/injection, schedule: Q01DX009 (ip), vehicle: saline 87 % of control | dose: 200.0 mg/kg/injection, schedule: Q01DX009 (ip), vehicle: saline 92 % of control | dose: 400.0 mg/kg/injection, schedule: Q01DX009 (ip), vehicle: saline 92 % of control

O=C(OCC1OC(n2nnc3ccnc(Cl)c32)C(OC(=O)c2ccccc2)C1OC(=O)c1ccccc1)c1ccccc1 (centres undefined)
inactive: dose: 50.0 mg/kg/injection, schedule: Q01DX005 (ip), vehicle: saline with Tween-80 93 % of control | dose: 100.0 mg/kg/injection, schedule: Q01DX005 (ip), vehicle: saline with Tween-80 98 % of control | dose: 200.0 mg/kg/injection, schedule: Q01DX005 (ip), vehicle: saline with Tween-80 104 % of control
